Values joined by “and” are separate entries in the source; they are usually repeats but may differ in a detail not shown here. Equal values may be shown once. Inconclusive results and toxic doses are left out. Residues, ends and D or L forms follow the SMILES beside them. *: point of attachment. Dnp = O=[N+]([O-])c1ccc(*)c([N+](=O)[O-])c1
System: CD2F1 mice, L1210 leukemia ip, survival T/C
Experiment: NCI In Vivo Anticancer Drug Screen. Data for tumor model L1210 Leukemia (intraperitoneal) in CD2F1 (CDF1) mice
Details: higher = longer survival
Method in brief: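 In this screen, transplantable tumors were grown in mice given either the compound or its vehicle. Results were expressed as the treated measurement relative to the control measurement.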

[1] = endpoint: mean survival time, dose: 50.0 mg/kg/injection, schedule: Q01DX001 (ip), vehicle: saline with Tween-80
[2] = endpoint: mean survival time, dose: 100.0 mg/kg/injection, schedule: Q01DX001 (ip), vehicle: saline with Tween-80
[3] = endpoint: mean survival time, dose: 200.0 mg/kg/injection, schedule: Q01DX001 (ip), vehicle: saline with Tween-80
[4] = endpoint: mean survival time, dose: 100.0 mg/kg/injection, schedule: Q04DX003 (ip), vehicle: saline with Tween-80
[5] = endpoint: mean survival time, dose: 200.0 mg/kg/injection, schedule: Q04DX003 (ip), vehicle: saline with Tween-80
[6] = endpoint: mean survival time, dose: 400.0 mg/kg/injection, schedule: Q04DX003 (ip), vehicle: saline with Tween-80
[7] = endpoint: mean survival time, dose: 100.0 mg/kg/injection, schedule: Q01DX009 (ip), vehicle: saline with Tween-80
[8] = endpoint: mean survival time, dose: 200.0 mg/kg/injection, schedule: Q01DX009 (ip), vehicle: saline with Tween-80
[9] = endpoint: mean survival time, dose: 400.0 mg/kg/injection, schedule: Q01DX009 (ip), vehicle: saline with Tween-80
[10] = endpoint: mean survival time, dose: 100.0 mg/kg/injection, schedule: Q04DX002 (ip), vehicle: saline with Tween-80
[11] = endpoint: mean survival time, dose: 400.0 mg/kg/injection, schedule: Q04DX002 (ip), vehicle: saline with Tween-80
[12] = endpoint: mean survival time, dose: 12.5 mg/kg/injection, schedule: Q01DX009 (ip), vehicle: saline with Tween-80
[13] = endpoint: mean survival time, dose: 25.0 mg/kg/injection, schedule: Q01DX009 (ip), vehicle: saline with Tween-80
[14] = endpoint: mean survival time, dose: 200.0 mg/kg/injection, schedule: Q04DX002 (ip), vehicle: saline with Tween-80
[15] = endpoint: mean survival time, dose: 400.0 mg/kg/injection, schedule: Q01DX001 (ip), vehicle: saline with Tween-80

## CSC/C(=N\Nc1ccc([N+](=O)[O-])cc1[N+](=O)[O-])c1ccccc1
[1]
  T/C: 98 % of control
[2]
  T/C: 93 % of control
[3]
  T/C: 90 % of control

## Nc1ncnc(N)c1NC(=O)c1cccc(OCc2ccccc2)c1
[4]
  T/C: 100 % of control
[5]
  T/C: 91 % of control
[6]
  T/C: 94 % of control

## NC1CCCCC1N.O=S(=O)([O-])CCCNC1CCCCC1.O=S(=O)([O-])CCCNC1CCCCC1.[Pt+4]
endpoint: median survival time, dose: 0.78 mg/kg/injection, schedule: Q04DX003 (ip), vehicle: saline
  T/C: 168 % of control
endpoint: median survival time, dose: 1.56 mg/kg/injection, schedule: Q04DX003 (ip), vehicle: saline
  T/C: 256 % of control
endpoint: median survival time, dose: 3.12 mg/kg/injection, schedule: Q04DX003 (ip), vehicle: saline
  T/C: 361 % of control and 365 % of control
endpoint: median survival time, dose: 6.25 mg/kg/injection, schedule: Q04DX003 (ip), vehicle: saline
  T/C: 169 % of control and 240 % of control

## CC1CC1Cc1ccccc1 (stereo unspecified)
[2]
  T/C: 86 % of control

## O=C(COc1ccccc1)NCc1ccc(Cl)cc1
[4]
  T/C: 98 % of control
[5]
  T/C: 98 % of control
[6]
  T/C: 96 % of control

## O=C1CCCCCC2CC12 (stereo unspecified)
[7]
  T/C: 94 % of control
[8]
  T/C: 102 % of control
[9]
  T/C: 94 % of control

## NCC(=O)NC(CSc1ccc([N+](=O)[O-])cc1[N+](=O)[O-])C(=O)NC(CCC(=O)O)C(=O)O (stereo unspecified) (H-Gly-Cys(Dnp)-Glu-OH; configuration not given here)
[4]
  T/C: 103 % of control
[5]
  T/C: 101 % of control
[6]
  T/C: 98 % of control

## OC[CH2][Hg][Br]
endpoint: mean survival time, dose: 0.37 mg/kg/injection, schedule: Q01DX009 (ip), vehicle: saline
  T/C: 90 % of control
endpoint: mean survival time, dose: 0.75 mg/kg/injection, schedule: Q01DX009 (ip), vehicle: saline
  T/C: 92 % of control
endpoint: mean survival time, dose: 1.5 mg/kg/injection, schedule: Q01DX009 (ip), vehicle: saline
  T/C: 95 % of control
endpoint: mean survival time, dose: 3.0 mg/kg/injection, schedule: Q01DX009 (ip), vehicle: saline
  T/C: 93 % of control

## Nc1ncnc2c1ncn2CC(N)C(=O)O (stereo unspecified)
endpoint: mean survival time, dose: 100.0 mg/kg/injection, schedule: Q01DX001 (ip), vehicle: saline
  T/C: 103 % of control
endpoint: mean survival time, dose: 200.0 mg/kg/injection, schedule: Q01DX001 (ip), vehicle: saline
  T/C: 107 % of control
endpoint: mean survival time, dose: 400.0 mg/kg/injection, schedule: Q01DX001 (ip), vehicle: saline
  T/C: 105 % of control

## c1ccc(C(c2ccccc2)c2ccccc2)cc1
[4]
  T/C: 97 % of control
[5]
  T/C: 98 % of control

## OCCSc1c(Cl)c(Cl)c(Cl)c(Cl)c1Cl
endpoint: mean survival time, dose: 25.0 mg/kg/injection, schedule: Q04DX002 (ip), vehicle: saline with Tween-80
  T/C: 98 % of control
endpoint: mean survival time, dose: 50.0 mg/kg/injection, schedule: Q04DX002 (ip), vehicle: saline with Tween-80
  T/C: 95 % of control
[10]
  T/C: 115 % of control
[11]
  T/C: 90 % of control

## CCCCNC(=O)C(C)S(=O)(=O)c1ccc(C)cc1 (stereo unspecified)
[7]
  T/C: 103 % of control
[8]
  T/C: 97 % of control
[9]
  T/C: 95 % of control

## CC1=CC(=O)C(C(C)C)CC1=O (stereo unspecified)
endpoint: mean survival time, dose: 6.25 mg/kg/injection, schedule: Q01DX009 (ip), vehicle: saline with Tween-80
  T/C: 98 % of control
[12]
  T/C: 102 % of control
[13]
  T/C: 95 % of control

## c1ccc([Si]2(c3ccccc3)c3ccccc3-c3ccccc32)cc1
[7]
  T/C: 94 % of control
[8]
  T/C: 99 % of control

## CNc1c2c(nc3ccccc13)CCCC2
endpoint: mean survival time, dose: 5.0 mg/kg/injection, schedule: Q04DX003 (ip), vehicle: saline with Tween-80
  T/C: 96 % of control

## CCCCCCCC/C=C\CCCCCCCC(=O)OCCCCC
[10]
  T/C: 87 % of control
[14]
  T/C: 95 % of control
[11]
  T/C: 106 % of control

## O=C(Cc1ccccc1)SC(=O)Cc1ccccc1
[2]
  T/C: 102 % of control
[3]
  T/C: 94 % of control
[15]
  T/C: 102 % of control

## Nc1nc(=Nc2ccccc2)n(C2OCC(O)C(O)C2O)c2ccccc12 (stereo unspecified)
endpoint: mean survival time, dose: 12.5 mg/kg/injection, schedule: Q01DX005 (ip), vehicle: distilled water + Tween-80
  T/C: 94 % of control
endpoint: mean survival time, dose: 25.0 mg/kg/injection, schedule: Q01DX005 (ip), vehicle: distilled water + Tween-80
  T/C: 94 % of control
endpoint: mean survival time, dose: 50.0 mg/kg/injection, schedule: Q01DX005 (ip), vehicle: distilled water + Tween-80
  T/C: 93 % of control
endpoint: mean survival time, dose: 100.0 mg/kg/injection, schedule: Q01DX005 (ip), vehicle: distilled water + Tween-80
  T/C: 90 % of control
endpoint: mean survival time, dose: 200.0 mg/kg/injection, schedule: Q01DX005 (ip), vehicle: distilled water + Tween-80
  T/C: 86 % of control

## CC(C)OC(=O)Nc1cc(C(F)(F)F)cc(C(F)(F)F)c1
[7]
  T/C: 113 % of control
[8]
  T/C: 94 % of control
[9]
  T/C: 92 % of control

## CC12CCC(/C(=C/NNc3ccc([N+](=O)[O-])cc3[N+](=O)[O-])C1=O)C2(C)C (stereo unspecified)
[4]
  T/C: 93 % of control
[5]
  T/C: 90 % of control
[6]
  T/C: 96 % of control

## O=C(/C=C(\Br)c1ccccc1)c1ccccc1
[10]
  T/C: 91 % of control

## CC(C)C(C#[N+][O-])C(C)C
endpoint: mean survival time, dose: 75.0 mg/kg/injection, schedule: Q01DX001 (ip), vehicle: other
  T/C: 108 % of control
endpoint: mean survival time, dose: 150.0 mg/kg/injection, schedule: Q01DX001 (ip), vehicle: other
  T/C: 105 % of control
endpoint: mean survival time, dose: 300.0 mg/kg/injection, schedule: Q01DX001 (ip), vehicle: other
  T/C: 96 % of control

## Cc1ccccc1C(C)(C#N)Nc1ccccc1 (stereo unspecified)
[4]
  T/C: 101 % of control
[5]
  T/C: 103 % of control
[6]
  T/C: 104 % of control

## COc1ccc(C2(C#N)CCCC2)cc1
endpoint: mean survival time, dose: 100.0 mg/kg/injection, schedule: Q01DX009 (ip), vehicle: saline sonified
  T/C: 94 % of control
[4]
  T/C: 97 % of control
endpoint: mean survival time, dose: 200.0 mg/kg/injection, schedule: Q01DX009 (ip), vehicle: saline sonified
  T/C: 102 % of control
[5]
  T/C: 101 % of control
endpoint: mean survival time, dose: 400.0 mg/kg/injection, schedule: Q01DX009 (ip), vehicle: saline sonified
  T/C: 96 % of control
[6]
  T/C: 95 % of control

## CCCCCCCCCCCCCCCC(=O)OCC1OC(N2C=CC(=O)CC2=O)C(O)C1O (stereo unspecified)
endpoint: median survival time, dose: 13.0 mg/kg/injection, schedule: Q01DX009 (ip), vehicle: saline + alcohol
  T/C: 174 % of control
endpoint: median survival time, dose: 20.0 mg/kg/injection, schedule: Q01DX009 (ip), vehicle: saline + alcohol
  T/C: 188 % of control
endpoint: median survival time, dose: 30.0 mg/kg/injection, schedule: Q01DX009 (ip), vehicle: saline + alcohol
  T/C: 174 % of control

## CC[As](=O)(O)c1ccc([N+](=O)[O-])cc1
endpoint: mean survival time, dose: 25.0 mg/kg/injection, schedule: Q01DX001 (ip), vehicle: saline with Tween-80
  T/C: 98 % of control
[1]
  T/C: 96 % of control

## O=S(=O)(Nc1ccc(CCc2ccc(NS(=O)(=O)c3ccccc3)cc2)cc1)c1ccccc1
[2]
  T/C: 95 % of control
[3]
  T/C: 90 % of control
[15]
  T/C: 92 % of control

## O=C(Cn1ccc(=O)[nH]c1=O)c1cc2ccccc2[nH]1
[10]
  T/C: 93 % of control
[14]
  T/C: 93 % of control
[11]
  T/C: 93 % of control

## Cc1ccc(S(N)(=O)=O)cc1
[7]
  T/C: 94 % of control
[8]
  T/C: 97 % of control
[9]
  T/C: 102 % of control

## CC(C)(CBr)COC(=O)Nc1cccc2ccccc12
[12]
  T/C: 91 % of control
[13]
  T/C: 91 % of control
endpoint: mean survival time, dose: 50.0 mg/kg/injection, schedule: Q01DX009 (ip), vehicle: saline with Tween-80
  T/C: 95 % of control

## CC1CCC2(OC1)OC1CC3C4CCC5(C)CC(=O)CCC5(C)C4CCC3(C)C1C2C (stereo unspecified)
[10]
  T/C: 90 % of control
[14]
  T/C: 86 % of control

## CCCCCCCC=C(CCCCCCCC)CCCCCCCC
[2]
  T/C: 100 % of control
[3]
  T/C: 97 % of control
[15]
  T/C: 100 % of control

## COc1cc2c(cc1OC)C(C#N)N(C(=O)c1ccccc1)C=C2 (stereo unspecified)
endpoint: mean survival time, dose: 25.0 mg/kg/injection, schedule: Q01DX009 (ip), vehicle: water
  T/C: 93 % of control
endpoint: mean survival time, dose: 50.0 mg/kg/injection, schedule: Q01DX009 (ip), vehicle: water
  T/C: 100 % of control
endpoint: mean survival time, dose: 100.0 mg/kg/injection, schedule: Q01DX009 (ip), vehicle: water
  T/C: 93 % of control
endpoint: mean survival time, dose: 200.0 mg/kg/injection, schedule: Q01DX009 (ip), vehicle: water
  T/C: 94 % of control
endpoint: mean survival time, dose: 400.0 mg/kg/injection, schedule: Q01DX009 (ip), vehicle: water
  T/C: 86 % of control

## [B-][N+]12CN3CN(CN(C3)C1)C2
endpoint: mean survival time, dose: 75.0 mg/kg/injection, schedule: Q01DX001 (ip), vehicle: saline
  T/C: 101 % of control

## CCCC(CC(=O)O)(C(=O)O)c1ccccc1 (stereo unspecified)
endpoint: mean survival time, dose: 100.0 mg/kg/injection, schedule: Q01DX009 (ip), vehicle: other
  T/C: 108 % of control
endpoint: mean survival time, dose: 100.0 mg/kg/injection, schedule: Q04DX003 (ip), vehicle: other
  T/C: 93 % of control
endpoint: mean survival time, dose: 200.0 mg/kg/injection, schedule: Q01DX009 (ip), vehicle: other
  T/C: 91 % of control
endpoint: mean survival time, dose: 200.0 mg/kg/injection, schedule: Q04DX003 (ip), vehicle: other
  T/C: 97 % of control
endpoint: mean survival time, dose: 400.0 mg/kg/injection, schedule: Q01DX009 (ip), vehicle: other
  T/C: 91 % of control
endpoint: mean survival time, dose: 400.0 mg/kg/injection, schedule: Q04DX003 (ip), vehicle: other
  T/C: 98 % of control

— PubChem BioAssay AID256 (DTP/NCI, 2004)
